Measured values from PubChem BioAssay AID1963853 (Molecular Pharmacology Branch, DTP, NCI, 2024).

Tested on: 266295-075-R-J1-PDC spheroid viability
Experiment: Anticancer human tumor 266295-075-R-J1-PDC patient-derived head and neck squamous carcinoma cell line growth inhibition [POLQ]
Settings: spheroids with HUVEC and MSC; for IC50: curve of first compound; for viability, T/C: stronger effect = lower value
Summary of the method: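 Growth inhibition in 3D: complex spheroids (tumor PDC, HUVEC, MSC) treated with POLQ inhibitor combinations; where Cmax unknown, highest tested concentration 10 microM, except SN-38 at 1 microM.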

[1] = second compound 0.0316 µM, first compound 0.0316 µM
[2] = second compound 0.0316 µM, first compound 0.1 µM
[3] = second compound 0.0316 µM, first compound 0.316 µM
[4] = second compound 0.0316 µM, first compound 1 µM
[5] = second compound 0.0316 µM, first compound 3.16 µM
[6] = second compound 0.0316 µM, first compound 10 µM
[7] = second compound 0.1 µM, first compound 0.0316 µM
[8] = second compound 0.1 µM, first compound 0.1 µM
[9] = second compound 0.1 µM, first compound 0.316 µM
[10] = second compound 0.1 µM, first compound 1 µM
[11] = second compound 0.1 µM, first compound 3.16 µM
[12] = second compound 0.1 µM, first compound 10 µM
[13] = second compound 0.316 µM, first compound 0.0316 µM
[14] = second compound 0.316 µM, first compound 0.1 µM
[15] = second compound 0.316 µM, first compound 0.316 µM
[16] = second compound 0.316 µM, first compound 1 µM
[17] = second compound 0.316 µM, first compound 3.16 µM
[18] = second compound 0.316 µM, first compound 10 µM
[19] = second compound 1 µM, first compound 0.0316 µM
[20] = second compound 1 µM, first compound 0.1 µM
[21] = second compound 1 µM, first compound 0.316 µM
[22] = second compound 1 µM, first compound 1 µM
[23] = second compound 1 µM, first compound 3.16 µM
[24] = second compound 1 µM, first compound 10 µM
[25] = second compound 3.16 µM, first compound 0.0316 µM
[26] = second compound 3.16 µM, first compound 0.1 µM
[27] = second compound 3.16 µM, first compound 0.316 µM
[28] = second compound 3.16 µM, first compound 1 µM
[29] = second compound 3.16 µM, first compound 3.16 µM
[30] = second compound 3.16 µM, first compound 10 µM
[31] = second compound 10 µM, first compound 0.0316 µM
[32] = second compound 10 µM, first compound 0.1 µM
[33] = second compound 10 µM, first compound 0.316 µM
[34] = second compound 10 µM, first compound 1 µM
[35] = second compound 10 µM, first compound 3.16 µM
[36] = second compound 10 µM, first compound 10 µM
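Also: spheroids exposed to compounds for seven days before readout.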

## CCc1cc2c(N3CCc4c(cc(Cn5ccnc5)cc4-c4cn(C)nc4C(F)(F)F)C3=O)cc(C)nc2c(OC)n1 + Nc1ccc(C#CCN(C(=O)Cc2ncc(C(F)(F)F)cc2C(F)(F)F)c2ccc(F)cc2)nn1
Second compound 0.0316 µM
  IC50: > 10 µM
Second compound 0.1 µM
  IC50: > 10 µM
Second compound 0.316 µM
  IC50: > 10 µM
Second compound 1 µM
  IC50: > 10 µM
Second compound 3.16 µM
  IC50: > 10 µM
Second compound 10 µM
  IC50: > 10 µM
[1]
  viability, T/C: 103%
[2]
  viability, T/C: 96.2%
[3]
  viability, T/C: 127%
[4]
  viability, T/C: 141%
[5]
  viability, T/C: 122%
[6]
  viability, T/C: 149%
[7]
  viability, T/C: 112%
[8]
  viability, T/C: 113%
[9]
  viability, T/C: 105%
[10]
  viability, T/C: 141%
[11]
  viability, T/C: 163%
[12]
  viability, T/C: 137%
[13]
  viability, T/C: 102%
[14]
  viability, T/C: 105%
[15]
  viability, T/C: 91%
[16]
  viability, T/C: 144%
[17]
  viability, T/C: 129%
[18]
  viability, T/C: 152%
[19]
  viability, T/C: 106%
[20]
  viability, T/C: 94.2%
[21]
  viability, T/C: 96.7%
[22]
  viability, T/C: 136%
[23]
  viability, T/C: 123%
[24]
  viability, T/C: 133%
[25]
  viability, T/C: 95.3%
[26]
  viability, T/C: 109%
[27]
  viability, T/C: 130%
[28]
  viability, T/C: 126%
[29]
  viability, T/C: 118%
[30]
  viability, T/C: 120%
[31]
  viability, T/C: 106%
[32]
  viability, T/C: 93.9%
[33]
  viability, T/C: 106%
[34]
  viability, T/C: 115%
[35]
  viability, T/C: 127%
[36]
  viability, T/C: 139%

## CCc1cc2c(N3CCc4c(cc(Cn5ccnc5)cc4-c4cn(C)nc4C(F)(F)F)C3=O)ccnc2c(OC)n1 + Nc1ccc(C#CCN(C(=O)Cc2ncc(C(F)(F)F)cc2C(F)(F)F)c2ccc(F)cc2)nn1
Second compound 0.0316 µM
  IC50: > 10 µM
Second compound 0.1 µM
  IC50: > 10 µM
Second compound 0.316 µM
  IC50: > 10 µM
Second compound 1 µM
  IC50: > 10 µM
Second compound 3.16 µM
  IC50: > 10 µM
Second compound 10 µM
  IC50: > 10 µM
[1]
  viability, T/C: 92.7%
[2]
  viability, T/C: 102%
[3]
  viability, T/C: 105%
[4]
  viability, T/C: 141%
[5]
  viability, T/C: 183%
[6]
  viability, T/C: 159%
[7]
  viability, T/C: 100%
[8]
  viability, T/C: 110%
[9]
  viability, T/C: 91.7%
[10]
  viability, T/C: 135%
[11]
  viability, T/C: 127%
[12]
  viability, T/C: 132%
[13]
  viability, T/C: 116%
[14]
  viability, T/C: 120%
[15]
  viability, T/C: 110%
[16]
  viability, T/C: 138%
[17]
  viability, T/C: 148%
[18]
  viability, T/C: 127%
[19]
  viability, T/C: 109%
[20]
  viability, T/C: 117%
[21]
  viability, T/C: 97.5%
[22]
  viability, T/C: 114%
[23]
  viability, T/C: 134%
[24]
  viability, T/C: 115%
[25]
  viability, T/C: 99.8%
[26]
  viability, T/C: 103%
[27]
  viability, T/C: 122%
[28]
  viability, T/C: 102%
[29]
  viability, T/C: 110%
[30]
  viability, T/C: 130%
[31]
  viability, T/C: 103%
[32]
  viability, T/C: 97.7%
[33]
  viability, T/C: 118%
[34]
  viability, T/C: 115%
[35]
  viability, T/C: 133%
[36]
  viability, T/C: 121%

## COc1cc2cc(C(=O)CCC(=O)O)sc2cc1OC + Nc1ccc(C#CCN(C(=O)Cc2ncc(C(F)(F)F)cc2C(F)(F)F)c2ccc(F)cc2)nn1
Second compound 0.0316 µM
  IC50: > 10 µM
Second compound 0.1 µM
  IC50: > 10 µM
Second compound 0.316 µM
  IC50: > 10 µM
Second compound 1 µM
  IC50: > 10 µM
Second compound 3.16 µM
  IC50: > 10 µM
Second compound 10 µM
  IC50: > 10 µM
[1]
  viability, T/C: 119%
[2]
  viability, T/C: 81%
[3]
  viability, T/C: 82.3%
[4]
  viability, T/C: 89.5%
[5]
  viability, T/C: 94.8%
[6]
  viability, T/C: 99.7%
[7]
  viability, T/C: 101%
[8]
  viability, T/C: 87.7%
[9]
  viability, T/C: 84.3%
[10]
  viability, T/C: 127%
[11]
  viability, T/C: 82.2%
[12]
  viability, T/C: 80.6%
[13]
  viability, T/C: 109%
[14]
  viability, T/C: 112%
[15]
  viability, T/C: 104%
[16]
  viability, T/C: 79.8%
[17]
  viability, T/C: 104%
[18]
  viability, T/C: 79.1%
[19]
  viability, T/C: 86.4%
[20]
  viability, T/C: 106%
[21]
  viability, T/C: 102%
[22]
  viability, T/C: 83%
[23]
  viability, T/C: 117%
[24]
  viability, T/C: 90.9%
[25]
  viability, T/C: 105%
[26]
  viability, T/C: 106%
[27]
  viability, T/C: 98.9%
[28]
  viability, T/C: 81.8%
[29]
  viability, T/C: 85.7%
[30]
  viability, T/C: 104%
[31]
  viability, T/C: 82.5%
[32]
  viability, T/C: 83.7%
[33]
  viability, T/C: 86.4%
[34]
  viability, T/C: 102%
[35]
  viability, T/C: 87.5%
[36]
  viability, T/C: 88%

## O=C(Nc1ccc(O)c(NS(=O)(=O)c2ccc(F)cc2)c1)c1ccc(-c2ccccc2)cc1 + Nc1ccc(C#CCN(C(=O)Cc2ncc(C(F)(F)F)cc2C(F)(F)F)c2ccc(F)cc2)nn1
Second compound 0.0316 µM
  IC50: > 10 µM
Second compound 0.1 µM
  IC50: > 10 µM
Second compound 0.316 µM
  IC50: > 10 µM
Second compound 1 µM
  IC50: > 10 µM
Second compound 3.16 µM
  IC50: > 10 µM
Second compound 10 µM
  IC50: > 10 µM
[1]
  viability, T/C: 118%
[2]
  viability, T/C: 105%
[3]
  viability, T/C: 96.8%
[4]
  viability, T/C: 114%
[5]
  viability, T/C: 135%
[6]
  viability, T/C: 87.8%
[7]
  viability, T/C: 98.3%
[8]
  viability, T/C: 123%
[9]
  viability, T/C: 86.3%
[10]
  viability, T/C: 118%
[11]
  viability, T/C: 131%
[12]
  viability, T/C: 94.7%
[13]
  viability, T/C: 103%
[14]
  viability, T/C: 113%
[15]
  viability, T/C: 123%
[16]
  viability, T/C: 114%
[17]
  viability, T/C: 130%
[18]
  viability, T/C: 106%
[19]
  viability, T/C: 101%
[20]
  viability, T/C: 109%
[21]
  viability, T/C: 83.5%
[22]
  viability, T/C: 109%
[23]
  viability, T/C: 131%
[24]
  viability, T/C: 91.9%
[25]
  viability, T/C: 94.4%
[26]
  viability, T/C: 98%
[27]
  viability, T/C: 91%
[28]
  viability, T/C: 99.7%
[29]
  viability, T/C: 111%
[30]
  viability, T/C: 106%
[31]
  viability, T/C: 87.9%
[32]
  viability, T/C: 82.4%
[33]
  viability, T/C: 102%
[34]
  viability, T/C: 105%
[35]
  viability, T/C: 94.3%
[36]
  viability, T/C: 87.9%
